# Assay results reported in patent publication US11053207B2, “Indoleamine-2,3-dioxygenase inhibitor and preparation method therefor” (SHANGHAI INSTITUTE OF ORGANIC CHEMISTRY, CHINESE ACADEMY OF …, priority 2014, dated 2021).
# pIC50: −log10 of the molar value. Several values for one entry are separate records, joined by “and”; a condition that tells them apart may be missing. Identical values can stand only once.
# Experiments:
# IDO enzyme = IDO enzyme (Homo sapiens (Human), UniProt P14902); test: IDO enzyme inhibitory activity; type: biochemical; settings: OD321 nm, 60 min
# IDO enzyme, sequence (P14902 whole entry): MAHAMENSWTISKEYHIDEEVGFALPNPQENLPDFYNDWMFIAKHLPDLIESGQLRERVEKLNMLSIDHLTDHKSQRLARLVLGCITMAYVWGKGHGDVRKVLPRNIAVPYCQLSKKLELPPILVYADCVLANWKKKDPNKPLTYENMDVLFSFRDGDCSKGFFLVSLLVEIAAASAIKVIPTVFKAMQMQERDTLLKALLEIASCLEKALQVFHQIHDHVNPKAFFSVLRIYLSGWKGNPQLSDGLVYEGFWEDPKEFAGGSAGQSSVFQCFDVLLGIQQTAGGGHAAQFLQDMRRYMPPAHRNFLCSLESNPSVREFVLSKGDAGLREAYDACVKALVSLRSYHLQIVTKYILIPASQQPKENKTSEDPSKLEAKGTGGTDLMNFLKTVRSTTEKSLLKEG
# Procedure: Firstly, the IDO gene was amplified by PCR, the PCR amplification products were recovered, and then the pET28a plasmid (purchased from Shanghai Baoman Biotechnology Co., Ltd.) and the IDO gel recovery products were digested with EcoR I and Xho I restriction endonucleases (37° C., digestion for 2 h), electrophorized and recovered. The recovered products were ligated overnight by a T4 ligase and then the ligation products were added to DH5α competent cells, placed on ice for 30 min, heat-shocked at 42° C. for 90 s, cultured on a shaker, and seeded to a plate. Monoclonies were picked, identified by PCR and then by sequencing.
# The constructed BL21 containing the pET28a-IDO plasmid was cultured at 37° C. to OD600=0.6-0.8, and a final concentration of 7 μM of chlorine methemoglobin and 1 mM of IPTG (isopropyl-β-D-thiogalactoside) were added for induction at 28° C. for 4 h; after the induction, the cell was centrifuged at 6000 rpm at 4° C., the collected cells were washed once with 20 mM PBS (pH6.5), and centrifuged and collected again.
# The collected cells were resuspended with a lysis solution (20 mM PBS pH 6.5), ultrasonically lysed (40% of power, lysis for 20 min, placed on ice), the lysed bacteria were centrifuged at 13000 rpm for 15 min, precipitate was discarded and the supernatant was maintained; the nickel column was equilibrated with the lysis solution (20 mM PBS pH 6.5) for 3 column volumes, and then the lysis supernatant was loaded onto the nickel column; after loading, four column volumes of a rinsing solution (20 mM PBS pH 6.5, 20 mM imidazole) were used for washing, and finally protein was eluted with eluent (20 mM PBS pH 6.5, 250 mM imidazole); the eluted protein solution was dialyzed for 4 h, and the dialysis solution was 20 mM PBS, pH 6.5. After the dialysis, the protein sample was concentrated, packed, flash frozen by liquid nitrogen, and stored at −80° C. for further use.
# Firstly, the compound was subject to a 3-fold gradient dilution. 1 μL of each concentration was added to a 96-well plate; 50 μL of the IDO enzyme solution (final concentration 600 ng/100μL) was added: 25 μL of substrate 1 mixture solution was added, 25 μL of substrate 2 mixture solution was added to initiate the reaction. Finally, the plate was read at OD321 nm, 60 min.
# Hela cells = test: Test for cell activity (Hela cells, interferon γ, kynurenine read at 480 nm); type: cell-based; settings: human interferon γ 50 ng/mL, 48 h
# Procedure: Hela cells (100 μL) were inoculated on a 96-well plate at an inoculation amount of 5×10^3 per well and grown overnight. The next day, after the compound was diluted, 1 μL was added to a 96-well plate and then 100 μL of medium containing human interferon y (final concentration of 50 ng/mL) was added to the 96-well plate to allow the final volume to be 200 μL. 48 h after incubating, 140 μL of supernatant in each well was transferred to a new 96-well plate. 10 μL of 6.1 N trichloroacetic acid was added to each well and mixed and incubated at 50° C. for 30 min, IDO catalyzed N-formyl canine urea to become canine urea. The reaction mixture was centrifuged at 2500 rpm for 10 minutes to remove the precipitate. 100 μL of supernatant in each well was transferred to a new 96-well plate and mixed with 100 μL of 2% dimethylaminobenzaldehyde acetic acid solution. After the canine urea was separated, the value was measured at 480 nm using a SPECTRAmax i3 reader.
# [1] = Pharmacokinetics of compound 6 in ICR mice after oral compound 13 (prodrug); type: in vivo; settings: for AUMC0-inf / AUMC0-t / Kel / MRTPO: compound 6 in ICR mice after oral compound 13 30 mg/kg
# Procedure: Compound 13 was orally administered to ICR mice. Blood samples were collected at different time points. LC-MS/MS was used to determine the concentration of compound 6 in the plasma of mice after administration of the test substance, and the relevant pharmacokinetic parameters were calculated, the pharmacological properties of compound 6 in mice was investigated.
# Experimental design: 3 ICR mice, provided by Suzhou Zhaoyan New Drug Research and Development Co., Ltd.; the experiment was carried out according to Table 6.
# Each animal was anesthetized with isoflurane and thereafter about 25 μL of blood was collected through the eyepit, anticoagulated with EDTAK2, the collecting time points were: before administration of the test substance (0 hr) and 15 min, 30 min, 1 h, 2 h, 4 h, 6 h, 8 h and 24 h after administration of the test substance. Blood samples were collected and placed on ice and the plasma was centrifuged and separated within 1 hour (centrifugal conditions: 5000 rpm, 10 minutes, 4° C.). The collected plasma was stored at −20° C. before analysis.
# Data acquisition and control system software was the Analyst1.5.1 software (Applied Biosystem). The sample peak integral method was automatic integration; The ratio of the peak area of the sample and the peak area of the internal standard was taken as the index and the concentration of the sample was regressed. Regression method: linear regression, the weight coefficient was 1/X^2. Pharmacokinetic parameters were analyzed with a non-compartmental model using WinNonlin Professional v6.3 (Pharsight, USA). Cmax is the measured maximum blood concentration, and the area under the blood concentration-time curve AUC(0→t) was calculated from the trapezoidal method, and Tmax is the peak blood concentration time after administration. The experimental data is expressed as “mean±SD, n≥3” or “mean” (mean, n=2).
compound,measurement,setting,value
"CS(=O)(CCNc1nonc1/C(=N/O)Nc1ccc(F)c(Br)c1)=NC#N (racemic) [compound 6, (±)(Z)—N-(3-bromo-4-fluorophenyl)-N′-hydroxy-4-((2-(thio-methylsulfoxidecyanoimine)ethyl)amino)-1,2,5-oxadiazole-3-carboxamidine]",pIC50,IDO enzyme,7.96
same,pIC50,Hela cells,8.74
same,pharmacokinetic parameters (overall judgement),"[1]; ICR mice, after oral compound 13",excellent pharmacokinetic parameters
same,AUMC0-inf,[1]; individual mouse,46297 hr*hr*ng/mL and 13854 hr*hr*ng/mL and 21447 hr*hr*ng/mL
same,AUMC0-t,[1]; individual mouse,19793 hr*hr*ng/mL and 12189 hr*hr*ng/mL and 16309 hr*hr*ng/mL
same,Kel,[1]; individual mouse,0.0695 h⁻¹ and 0.156 h⁻¹ and 0.123 h⁻¹
same,MRTPO,[1]; individual mouse,15.0 h and 6.25 h and 7.99 h
same,AUMC0-inf,[1]; mean,27199 hr*hr*ng/mL
same,AUMC0-t,[1]; mean,16097 hr*hr*ng/mL
same,Kel,[1]; mean,0.116 h⁻¹
same,MRTPO,[1]; mean,9.76 ± 4.64 h and 9.76 h
